Measurements reported in patent publication US20160039904A1, “STABILIZED SINGLE HUMAN CD4 DOMAINS AND FUSION PROTEINS” (priority 2013, published 2016).

What was measured:
[1] = system: HIV-1 KNH1144.EC1; assay: TZM-bl cell-based neutralization assay; conditions: Table 6; KNH1144.EC1, clade A, R5
[2] = system: HIV-1 CM240.EC1; assay: TZM-bl cell-based neutralization assay; conditions: Table 6; CM240.EC1, clade AE, R5
[3] = system: HIV-1 Z2Z6; assay: Pseudotyped HIV-1 neutralization (HOS-CD4-CCR5 cells); type: cell-based; conditions: Table 3; Z2Z6, clade D, R5
Description: (§1) To determine the potency and breadth of HIV-1 neutralization by the D1 mutants, viruses pseudotyped with Envs from HIV-1 isolates representing clades A-E and using either CCR5 (R5) or CXCR4 (X4) or both (R5X4) as a coreceptor were included. Pseudoviruses were derived from 293T cells and a neutralization assay was performed in duplicate using HOS-CD4-CCR5 (for all R5 and dual tropic viruses) or HOS-CD4-CXCR4 cell lines as described in Chen et al., Proc. Natl. Acad. Sci. USA, 105: 17121-17126 (2008)). Luminescence was measured 48 hours post-infection and the percentage neutralization was calculated by the following formula: (1—average RLU of inhibitor-containing wells/average RLU or virus-only wells)×100.

[4] = system: HIV-1 89.6; assay: as above; type: cell-based; conditions: Table 3; 89.6, clade B, R5X4
Description: as §1

[5] = system: HIV-1 GXE; assay: as above; type: cell-based; conditions: Table 3, clade E, R5
Description: as §1

[6] = system: HIV-1 AD8; assay: as above; type: cell-based; conditions: Table 3; AD8, clade B, R5
Description: as §1

[7] = system: HIV-1 R2; assay: as above; type: cell-based; conditions: Table 3; R2, clade B, R5
Description: as §1

[8] = system: HIV-1 JRFL; assay: as above; type: cell-based; conditions: R5
Description: as §1

[9] = system: HIV-1 92UG037.8; assay: as above; type: cell-based; conditions: Table 3; 92UG037.8, clade A, R5
Description: as §1

[10] = system: HIV-1 Bal; assay: as above; type: cell-based; conditions: R5
Description: as §1

[11] = system: HIV-1 JRCSF; assay: as above; type: cell-based; conditions: Table 3, clade B, R5
Description: as §1

[12] = system: HIV-1 GXC; assay: as above; type: cell-based; conditions: Table 3, clade C, R5
Description: as §1

[13] = system: HIV-1 CM243; assay: as above; type: cell-based; conditions: Table 3; CM243, clade E, R5
Description: as §1

[14] = system: HIV-1 CAM0015BBY.EC3; assay: TZM-bl cell-based neutralization assay; conditions: Table 6; CAM0015BBY.EC3, clade AG, R5
[15] = next 5 days of incubation (days 5-10), 37° C.
Description: The proteins were then assessed for their stability against degradation during 15 days of incubation with PBS (see FIG. 12A) or human serum (see FIG. 12B) at 37° C.

[16] = system: HIV-1 primary isolates Bal and JRFL; type: cell-based; conditions: in contrast to D1D2
[17] = system: HIV-1 57128.VRC18; assay: TZM-bl cell-based neutralization assay; conditions: Table 6; 57128.VRC18, clade D, R5

For “4Dm2m: bispecific multivalent fusion protein of mD1.22 and m36.4; two SEQ ID NO: 20 and two SEQ ID NO: 21 chains”, the IC50 [1] was 0.081 nM, the IC90 [1] was 1 nM and the IC50 [2] was 0.45 nM. It also gave an IC90 [2] of 3.7 nM, an IC50 [3] of 0.14 ± 0.04 nM and an IC90 [3] of 1.1 ± 0.1 nM. The IC50 [4] was < 0.021 nM, the IC90 [4] was < 0.021 nM and the IC50 [5] was 0.83 ± 0.11 nM. The IC90 [5] was 8.2 ± 1.3 nM, the IC50 [6] was 0.13 ± 0.01 nM and the IC90 [6] was 0.74 ± 0.06 nM. It also gave an IC50 [7] of 0.028 ± 0.011 nM, an IC90 [7] of 0.43 ± 0.18 nM and an IC50 ([8]; Table 2, clade B) of 0.06 nM. It also gave an IC90 ([8]; Table 2, clade B) of 0.29 nM, an IC50 ([8]; Table 3, clade B) of 0.14 ± 0.01 nM and an IC90 ([8]; Table 3, clade B) of 0.39 ± 0.04 nM. The IC50 [9] was 0.051 ± 0.001 nM, the IC90 [9] was 0.45 ± 0.01 nM and the IC50 ([10]; Table 2, clade B) was 0.12 nM. For the same substance, the IC90 ([10]; Table 2, clade B) was 0.36 nM, the IC50 ([10]; Table 3, clade B) was 0.15 ± 0.04 nM and the IC90 ([10]; Table 3, clade B) was 0.5 ± 0.07 nM. The IC50 [11] was 0.29 ± 0.18 nM, the IC90 [11] was 3 ± 2.9 nM and the IC50 [12] was 0.61 ± 0.36 nM. For the same substance, the IC90 [12] was 4 nM, the IC50 [13] was 0.29 ± 0.11 nM and the IC90 [13] was 1.2 ± 0.6 nM. The IC50 [14] was 0.72 nM, the IC90 [14] was 7.4 nM and the “degradation in human serum” value [15] was “slower than that of CD4-Ig”. For the same substance, the “enhancement of HIV-1 infectivity at low concentrations” value [16] was “not enhance HIV-1 infectivity”, the IC50 [17] was 0.4 nM and the IC90 [17] was 2.8 nM.
